ChEMBL document CHEMBL1126615, “Structure-activity relationships in prazosin-related compounds. 2. Role of the piperazine ring on alpha-blocking activity” (J Med Chem, 1993)

What was measured:
[1] = target: T1, Adrenergic receptor alpha-2 (Rattus norvegicus, UniProt P22086+P19328+P22909); assay: Alpha-2 Adrenoceptor blocking activity as antagonism of clonidine-induced depression of field-stimulated prostatic rat vas deferens; assay type: functional, tissue-based
T1 sequence (P22086 whole entry): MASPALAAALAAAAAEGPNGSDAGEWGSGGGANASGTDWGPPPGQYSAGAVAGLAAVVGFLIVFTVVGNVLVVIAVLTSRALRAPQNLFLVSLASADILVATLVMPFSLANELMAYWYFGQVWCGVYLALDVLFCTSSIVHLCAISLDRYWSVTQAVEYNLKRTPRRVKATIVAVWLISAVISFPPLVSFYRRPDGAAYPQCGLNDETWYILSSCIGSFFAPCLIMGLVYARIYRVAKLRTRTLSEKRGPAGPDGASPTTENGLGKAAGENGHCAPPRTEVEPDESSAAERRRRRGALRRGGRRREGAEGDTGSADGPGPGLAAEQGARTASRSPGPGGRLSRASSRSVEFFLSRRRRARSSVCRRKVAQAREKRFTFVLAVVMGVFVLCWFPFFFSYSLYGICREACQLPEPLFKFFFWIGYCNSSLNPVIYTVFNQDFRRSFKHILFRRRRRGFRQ
T1 sequence (P19328 whole entry): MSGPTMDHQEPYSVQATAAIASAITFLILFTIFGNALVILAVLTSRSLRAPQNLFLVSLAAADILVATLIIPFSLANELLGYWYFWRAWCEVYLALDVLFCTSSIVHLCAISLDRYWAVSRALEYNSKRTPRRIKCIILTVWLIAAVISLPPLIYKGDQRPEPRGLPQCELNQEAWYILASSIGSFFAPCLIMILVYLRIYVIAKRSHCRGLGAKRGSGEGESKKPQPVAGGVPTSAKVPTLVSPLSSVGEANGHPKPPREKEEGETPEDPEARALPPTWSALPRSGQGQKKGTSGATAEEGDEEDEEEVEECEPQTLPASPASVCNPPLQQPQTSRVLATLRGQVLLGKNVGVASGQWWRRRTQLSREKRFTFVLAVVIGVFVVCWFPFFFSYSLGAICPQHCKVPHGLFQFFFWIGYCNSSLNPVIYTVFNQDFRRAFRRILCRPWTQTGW
T1 sequence (P22909 whole entry): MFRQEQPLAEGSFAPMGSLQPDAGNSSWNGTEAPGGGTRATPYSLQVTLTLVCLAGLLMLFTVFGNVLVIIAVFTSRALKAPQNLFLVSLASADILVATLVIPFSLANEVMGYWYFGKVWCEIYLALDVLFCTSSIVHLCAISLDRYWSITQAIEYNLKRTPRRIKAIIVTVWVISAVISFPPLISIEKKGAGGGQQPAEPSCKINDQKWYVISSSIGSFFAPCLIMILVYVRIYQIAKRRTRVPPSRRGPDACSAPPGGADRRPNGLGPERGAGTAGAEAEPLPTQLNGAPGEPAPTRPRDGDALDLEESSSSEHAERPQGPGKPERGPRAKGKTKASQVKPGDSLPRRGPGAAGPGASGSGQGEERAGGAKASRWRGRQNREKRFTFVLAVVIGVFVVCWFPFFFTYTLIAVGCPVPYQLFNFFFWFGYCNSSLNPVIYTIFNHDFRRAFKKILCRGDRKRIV

[2] = target: T2, Adrenergic receptor alpha-1 (Rattus norvegicus, UniProt P15823+P23944+P43140); assay: Alpha-1 Adrenoceptor blocking activity as antagonism of norepinephrine-induced contractions of epididymal portion of rat vas deferens; assay type: functional, tissue-based
T2 sequence (P15823 whole entry): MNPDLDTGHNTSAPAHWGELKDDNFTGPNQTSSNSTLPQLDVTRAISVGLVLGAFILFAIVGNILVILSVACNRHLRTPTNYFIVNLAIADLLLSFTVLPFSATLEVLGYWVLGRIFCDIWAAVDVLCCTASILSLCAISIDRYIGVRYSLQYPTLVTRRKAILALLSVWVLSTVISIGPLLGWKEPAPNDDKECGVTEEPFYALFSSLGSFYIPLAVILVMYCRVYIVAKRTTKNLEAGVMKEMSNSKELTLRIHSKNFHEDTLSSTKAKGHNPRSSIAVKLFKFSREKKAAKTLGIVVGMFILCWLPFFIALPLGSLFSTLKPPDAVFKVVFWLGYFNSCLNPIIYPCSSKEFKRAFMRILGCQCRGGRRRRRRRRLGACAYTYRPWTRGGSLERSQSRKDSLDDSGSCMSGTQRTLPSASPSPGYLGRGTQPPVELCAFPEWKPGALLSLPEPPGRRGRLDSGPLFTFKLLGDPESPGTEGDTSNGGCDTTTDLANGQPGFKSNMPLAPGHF
T2 sequence (P23944 whole entry): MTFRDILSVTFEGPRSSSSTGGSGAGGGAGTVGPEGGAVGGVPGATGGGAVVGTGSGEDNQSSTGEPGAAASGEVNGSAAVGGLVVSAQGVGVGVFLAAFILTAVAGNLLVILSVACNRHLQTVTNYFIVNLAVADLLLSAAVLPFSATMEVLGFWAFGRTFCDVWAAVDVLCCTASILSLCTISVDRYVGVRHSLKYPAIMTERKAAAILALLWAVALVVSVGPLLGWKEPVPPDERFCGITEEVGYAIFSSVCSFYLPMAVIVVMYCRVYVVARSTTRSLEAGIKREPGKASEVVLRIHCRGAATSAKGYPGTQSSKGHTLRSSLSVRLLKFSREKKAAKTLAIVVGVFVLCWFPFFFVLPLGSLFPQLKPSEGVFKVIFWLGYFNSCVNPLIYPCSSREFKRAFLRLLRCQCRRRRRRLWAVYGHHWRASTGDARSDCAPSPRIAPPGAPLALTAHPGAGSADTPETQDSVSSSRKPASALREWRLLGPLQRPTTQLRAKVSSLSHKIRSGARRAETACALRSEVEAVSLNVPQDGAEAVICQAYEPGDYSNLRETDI
T2 sequence (P43140 whole entry): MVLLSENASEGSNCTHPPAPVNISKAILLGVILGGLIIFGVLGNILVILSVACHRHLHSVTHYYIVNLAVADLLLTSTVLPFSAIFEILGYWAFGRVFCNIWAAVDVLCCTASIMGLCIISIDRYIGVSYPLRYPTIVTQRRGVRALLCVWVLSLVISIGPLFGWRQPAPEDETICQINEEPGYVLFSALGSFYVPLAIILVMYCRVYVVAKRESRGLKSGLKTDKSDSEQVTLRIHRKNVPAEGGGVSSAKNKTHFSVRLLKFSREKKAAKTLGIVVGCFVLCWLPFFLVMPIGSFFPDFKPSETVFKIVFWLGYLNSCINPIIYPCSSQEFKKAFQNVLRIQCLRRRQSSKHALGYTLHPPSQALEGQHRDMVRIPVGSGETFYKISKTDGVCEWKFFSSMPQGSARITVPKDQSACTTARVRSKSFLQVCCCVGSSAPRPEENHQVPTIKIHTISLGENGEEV

[3] = The alpha1/alpha2 selectivity ratio is the antilog of the difference between pA2 values at alpha1 and alpha-2 adrenoceptor; assay type: functional

SMILES | pA2 [1] | pA2 [2] | Selectivity ratio [3]
COc1cc2nc(N(C)CCCCCCN(C)C(=O)c3ccco3)nc(N)c2cc1OC |  |  | 120
CCC1[C@@H](CC)N(c2nc(N)c3cc(OC)c(OC)cc3n2)CCN1C(=O)c1ccco1 (stereo in doubt; 11) [listing 2 of 2 here] |  |  | 440
COc1cc2nc(N(C)[C@@H]3CCCCC3N(C)C(=O)c3ccco3)nc(N)c2cc1OC (stereo in doubt; 5) [listing 2 of 2 here] |  |  | 2.5
COc1cc2nc(N3CCN(C(=O)c4ccco4)C(C)[C@H]3C)nc(N)c2cc1OC (stereo in doubt; 9) [listing 1 of 2 here] | 6.41 | 8.75 | 
COc1cc2nc(N3CCN(C(=O)c4ccco4)C(C)[C@H]3C)nc(N)c2cc1OC (stereo in doubt; 9) [listing 2 of 2 here] |  |  | 220
COc1cc2nc(N(C)[C@@H]3CCCCC3N(C)C(=O)c3ccco3)nc(N)c2cc1OC (stereo in doubt; 6) [listing 1 of 2 here] |  |  | 1.2
COc1cc2nc(N3CCN(C(=O)c4ccco4)C(C)[C@H]3C)nc(N)c2cc1OC (stereo in doubt; 10) [listing 2 of 2 here] |  |  | 180
COc1cc2nc(N3CCN(C(=O)c4ccco4)C(C)C3)nc(N)c2cc1OC (stereo not drawn) | 5.23 | 8.61 | 2100
CCC1[C@@H](CC)N(c2nc(N)c3cc(OC)c(OC)cc3n2)CCN1C(=O)c1ccco1 (stereo in doubt; 12) [listing 2 of 2 here] |  |  | 110
COc1cc2nc(NC3CCCCC3NC(=O)c3ccco3)nc(N)c2cc1OC (cis isomer) [listing 2 of 2 here] |  |  | 0.6
COc1cc2nc(NC3CCCCC3NC(=O)c3ccco3)nc(N)c2cc1OC (trans isomer) [listing 2 of 2 here] |  |  | 11

Now from value to molecule, other results behind:

pA2 [1] | pA2 [2] | SMILES | Selectivity ratio [3]
5.91 | 8.55 | CCC1[C@@H](CC)N(c2nc(N)c3cc(OC)c(OC)cc3n2)CCN1C(=O)c1ccco1 (stereo in doubt; 11) [listing 1 of 2 here] | 
5.41 | 5.8 | COc1cc2nc(N(C)[C@@H]3CCCCC3N(C)C(=O)c3ccco3)nc(N)c2cc1OC (stereo in doubt; 5) [listing 1 of 2 here] | 
5.15 |  | COc1cc2nc(N3CCN(C(=O)c4ccco4)C4CCCC[C@@H]43)nc(N)c2cc1OC (stereo in doubt; 14) | 
5.54 | 5.64 | COc1cc2nc(N(C)[C@@H]3CCCCC3N(C)C(=O)c3ccco3)nc(N)c2cc1OC (stereo in doubt; 6) [listing 2 of 2 here] | 
5.04 | 6.07 | COc1cc2nc(NC3CCCCC3NC(=O)c3ccco3)nc(N)c2cc1OC (trans isomer) [listing 1 of 2 here] | 
4.86 | 7.12 | COc1cc2nc(N3CCN(C(=O)c4ccco4)C(C)[C@H]3C)nc(N)c2cc1OC (stereo in doubt; 10) [listing 1 of 2 here] | 
5.96 | 5.74 | COc1cc2nc(NC3CCCCC3NC(=O)c3ccco3)nc(N)c2cc1OC (cis isomer) [listing 1 of 2 here] | 
5.05 | 7.09 | CCC1[C@@H](CC)N(c2nc(N)c3cc(OC)c(OC)cc3n2)CCN1C(=O)c1ccco1 (stereo in doubt; 12) [listing 1 of 2 here] | 
5.08 |  | COc1cc2nc(N3CCN(C(=O)c4ccco4)C4CCCC[C@@H]43)nc(N)c2cc1OC (stereo in doubt; 13) | 
5.94 | 8.13 | COc1cc2nc(N3CCN(C(=O)c4ccco4)C[C@H]3C)nc(N)c2cc1OC | 150
